Data from publication PMC9774128, “New Insights into the Mechanism of Antibacterial Action of Synthetic Peptide Mo-CBP3-PepI against Klebsiella pneumoniae” (Antibiotics, 2022).

What was measured:
K. pneumoniae biofilm = test: Antibiofilm assay: inhibition of biofilm formation, crystal violet; assay type: cell-based, Klebsiella pneumoniae; settings: peptide 31.25 μg mL^−1; 48 h, 37 °C; crystal violet O.D. 600 nm; triplicate, three independent experiments
Method: The antibiofilm assay was conducted in flat-bottom 96-well polystyrene microplates as described by Neto et al.. A single colony of K. pneumoniae was collected in stock Petri plates containing inoculated Mueller–Hinton agar. The colony was used as inoculum for 5 mL of Mueller–Hinton broth, and the media was incubated for 24 h in the dark at 37 °C. In sequence, the O.D. of the cell suspension was measured using a microplate reader (Epoch, BioTek) and adjusted to 0.1 at 630 nm with Mueller–Hinton broth. For the inhibition of biofilm formation, 50 µL of the cell ([…]) suspension was incubated with 50 µL of the peptide (31.25 μg mL^−1) solution and 50 µL of the respective controls described above. The incubation lasted for 48 h at 37 °C. For the biofilm degradation assay, 50 µL of the cell suspension was incubated for 24 h at 37 °C. After this, 50 µL of the peptide solution and the respective controls were added to the wells containing the preformed biofilm and incubated for 24 h at 37 °C.
After incubation, both wells of biofilm formation inhibition and biofilm degradation were washed once with a sterile saline solution. Then, the wells were fixated with 100 µL methanol 99% for 15 min. […] Then, the crystals stained on the biofilm were diluted with 200 µL of 33% acetic acid, and the O.D was measured using a wavelength of 600 nm. […]

K. pneumoniae cells = settings: 31.25 µg mL^−1, 24 h
Method: After this, samples were washed twice with 50 mM sodium acetate pH 5.2, with centrifugations at 12,000× g for 15 min at 4 °C. At the end of the washes, the samples were resuspended in 300 µL in the same buffer and frozen for 24 h. Then, the frozen samples were sonicated for 30 min to break the cell wall and membrane, the samples were centrifuged again, and the supernatant was collected.
After that, the Bradford assay was performed to determine the protein concentration in the samples. This step was followed by adding a 10 mM DTT solution under incubation for 1 h at 37 °C to reduce the proteins. Then iodoacetamide was added to a final concentration of 15 mM and incubated for 30 min in a dark room to alkylate the reduced proteins. The proteins reduced and alkylated were digested using trypsin gold (Promega, Madison, WI, USA) to a final concentration of 1:20 (w/w) as described by manufacturers. The trypsin digestion was performed for 16 h at 37 °C. Finally, the samples were dried in a speed vacuum (Eppendorf, Hamburg, Germany) for 3 h and analyzed by ESI-QUAD-TOF mass spectrometer.
Tandem mass spectra were extracted into PKL files for both samples, and the proteins were searched using MASCOT MS/MS ions search from MATRIX SCIENCE (https://www.matrixscience.com/cgi/search_form.pl?FORMVER=2&SEARCH=MIS (accessed on 15 September 2022)) against UP625_E_coli_K12 (AA), UP808_K_pneumoniae and SwissProt databases (the taxonomy was set in bacteria). The terms for the search were: fixed modifications to Carbamidomethyl (C); variable modifications to Oxidation […]; the Peptide tolerance was set to 1.2 DA (with 1% FDR); the MS/MS tolerance was set to 0.6 DA; the peptide charge was set to 2+, 3+, and 4+; and finally, the instrument was set to ESI-QUAD-TOF. The proteins identified in both samples were searched for in UNIPROT and separated into 3 sets (unique from control, unique from the cells treated with Mo-CBP3-PepI, and Mo-CBP3-PepI x control shared proteins).
The proteins with a fold-change value ≥ 1.5 (p < 0.05, Tukey’s test) that were up-accumulated (increased the abundance), and proteins with a fold-change value ≤ 0.5 (p < 0.05, Tukey’s test) that were down-accumulated (decreased the abundance) were taken into consideration for comparisons. For each protein, its corresponding FASTA file was downloaded. Then, the blast2go program (https://www.blast2go.com/ (accessed on 30 September 2022)) was used to categorize the proteins detected by Gene Ontology (GO) annotation according to Molecular function, […], and subcellular location.

Sequence: CPAIQRCC [Mo-CBP3-PepI]
- Inhibition of Biofilm Formation (%) (K. pneumoniae biofilm): 11.87 ± 0.001%
- Fold Change Mo-CBP3-PepI vs. DMSO: Methylenetetrahydrofolate--tRNA-(uracil-5-)-methyltransferase TrmFO (K. pneumoniae cells; A4WRQ2): 0.948
- Fold Change Mo-CBP3-PepI vs. DMSO: 50S ribosomal protein L22 (K. pneumoniae cells; A5IYY1): 0.187
- Fold Change Mo-CBP3-PepI vs. DMSO: Phosphoenolpyruvate carboxykinase (ATP) (K. pneumoniae cells; A8AQV7): 0.990
- Fold Change Mo-CBP3-PepI vs. DMSO: Xylose isomerase (K. pneumoniae cells; B5ZQV6): 1.062
- Fold Change Mo-CBP3-PepI vs. DMSO: Pantothenate synthetase (K. pneumoniae cells; B8I2Z3): 1.142
- Fold Change Mo-CBP3-PepI vs. DMSO: Chaperonin GroEL (K. pneumoniae cells; P0A6F5): 1.444
- Fold Change Mo-CBP3-PepI vs. DMSO: Pantothenate kinase (K. pneumoniae cells; P0A6I3): 0.548
- Fold Change Mo-CBP3-PepI vs. DMSO: HTH-type transcriptional regulator ArgP (K. pneumoniae cells; P0A8S1): 2.364
- Fold Change Mo-CBP3-PepI vs. DMSO: 50S ribosomal protein L7/L12 (K. pneumoniae cells; P0A466): 1.979
- Fold Change Mo-CBP3-PepI vs. DMSO: Zinc resistance-associated protein (K. pneumoniae cells; P0AAA9): 1.682
- Fold Change Mo-CBP3-PepI vs. DMSO: Cysteine synthase A (K. pneumoniae cells; P0ABK5): 0.596
- Fold Change Mo-CBP3-PepI vs. DMSO: Fimbriae Z protein (K. pneumoniae cells; P0AEL8): 0.690
- Fold Change Mo-CBP3-PepI vs. DMSO: Ferrichrome outer membrane transporter/phage receptor (K. pneumoniae cells; P06971): 1.063
- Fold Change Mo-CBP3-PepI vs. DMSO: Iron (3+)-hydroxamate import system permease protein FhuB (K. pneumoniae cells; P06972): 0.948
- Fold Change Mo-CBP3-PepI vs. DMSO: 2-succinyl-5-enolpyruvyl-6-hydroxy-3-cyclohexene-1-carboxylate synthase (K. pneumoniae cells; P17109): 3.486
- Fold Change Mo-CBP3-PepI vs. DMSO: Sensor protein PhoQ (K. pneumoniae cells; P23837): 0.823
- Fold Change Mo-CBP3-PepI vs. DMSO: Lipopolysaccharide core biosynthesis protein RfaZ (K. pneumoniae cells; P27241): 2.038
- Fold Change Mo-CBP3-PepI vs. DMSO: Inner membrane protein YhjD (K. pneumoniae cells; P37642): 0.362
- Fold Change Mo-CBP3-PepI vs. DMSO: Gamma-glutamylputrescine oxidoreductase (K. pneumoniae cells; P37906): 0.985
- Fold Change Mo-CBP3-PepI vs. DMSO: Endonuclease 8 (K. pneumoniae cells; P50465): 0.287
- Fold Change Mo-CBP3-PepI vs. DMSO: Sensor histidine kinase GlrK (K. pneumoniae cells; P52101): 0.752
- Fold Change Mo-CBP3-PepI vs. DMSO: 2.3-bisphosphoglycerate-dependent phosphoglycerate mutase (K. pneumoniae cells; P62707): 0.519
- Fold Change Mo-CBP3-PepI vs. DMSO: Low affinity potassium transport system protein kup (K. pneumoniae cells; P63183): 1.704
- Fold Change Mo-CBP3-PepI vs. DMSO: Peptide methionine sulfoxide reductase MsrB (K. pneumoniae cells; P75129): 14.104
- Fold Change Mo-CBP3-PepI vs. DMSO: Probable cytosol aminopeptidase (K. pneumoniae cells; P75206): 2.097
- Fold Change Mo-CBP3-PepI vs. DMSO: tRNA uridine 5-carboxymethylaminomethyl modification enzyme MnmG (K. pneumoniae cells; P75221): 0.487
- Fold Change Mo-CBP3-PepI vs. DMSO: Phosphate acyltransferase (K. pneumoniae cells; P75232): 3.096
- Fold Change Mo-CBP3-PepI vs. DMSO: Putative ABC transporter ATP-binding protein MPN_334 (K. pneumoniae cells; P75444): 1.336
- Fold Change Mo-CBP3-PepI vs. DMSO: Putative acetyltransferase MPN_114 (K. pneumoniae cells; P75448): 1.703
- Fold Change Mo-CBP3-PepI vs. DMSO: Cytadherence high molecular weight protein 2 (K. pneumoniae cells; P75471): 1.682
- Fold Change Mo-CBP3-PepI vs. DMSO: Oligopeptide transport ATP-binding protein OppD (K. pneumoniae cells; P75552): 0.948
- Fold Change Mo-CBP3-PepI vs. DMSO: Phenylacetate-coenzyme A ligase (K. pneumoniae cells; P76085): 1.666
- Fold Change Mo-CBP3-PepI vs. DMSO: Sensor histidine kinase HprS (K. pneumoniae cells; P76339): 0.213
- Fold Change Mo-CBP3-PepI vs. DMSO: UDP-glucose 6-dehydrogenase (K. pneumoniae cells; P76373): 0.902
- Fold Change Mo-CBP3-PepI vs. DMSO: Cation efflux system protein CusC (K. pneumoniae cells; P77211): 0.920
- Fold Change Mo-CBP3-PepI vs. DMSO: Glycerate 3-kinase (K. pneumoniae cells; P77364): 0.745
- Fold Change Mo-CBP3-PepI vs. DMSO: Glutathione S-transferase YfcF (K. pneumoniae cells; P77544): 0.273
- Fold Change Mo-CBP3-PepI vs. DMSO: HTH-type transcriptional regulator SutR (K. pneumoniae cells; P77626): 2.566
- Fold Change Mo-CBP3-PepI vs. DMSO: Lon protease (K. pneumoniae cells; P78025): 0.342
- Fold Change Mo-CBP3-PepI vs. DMSO: Pyruvate kinase (K. pneumoniae cells; P78031): 3.139
- Fold Change Mo-CBP3-PepI vs. DMSO: Undecaprenyl-diphosphatase (K. pneumoniae cells; Q2KX31): 1.340
- Fold Change Mo-CBP3-PepI vs. DMSO: Periplasmic trehalase (K. pneumoniae cells; Q4UZ12): 0.937
- Fold Change Mo-CBP3-PepI vs. DMSO: GMP synthase (glutamine-hydrolyzing) (K. pneumoniae cells; Q6APU2): 4.596
- Fold Change Mo-CBP3-PepI vs. DMSO: Elongation factor G (K. pneumoniae cells; Q7NAV3): 0.234
- Fold Change Mo-CBP3-PepI vs. DMSO: Diaminopimelate decarboxylase (K. pneumoniae cells; Q8K9C4): 3.546
- Fold Change Mo-CBP3-PepI vs. DMSO: Bifunctional protein FolD (K. pneumoniae cells; Q88WM8): 0.726
- Fold Change Mo-CBP3-PepI vs. DMSO: Mgp-operon protein 3 (K. pneumoniae cells; Q50341): 0.654
